Assay results: US11726079B2, “Lighting systems and methods of using lighting systems for in vitro potency assay for Photofrin” (Concordia Laboratories, Inc., priority 2012, dated 2023)
Several values for one entry are separate records, joined by “and”; a condition that tells them apart may be missing. Identical values can stand only once.

System: A549 human lung carcinoma cells
Assay: Photofrin® dose response of irradiated A549 cells with MTT as the endpoint
Format: cell-based
Procedure: XTT and MTT are two types of formazan dyes that are used to measure mitochondrial function as a surrogate for cell viability. A Photofrin® dose response curve is performed with either XTT or MTT as the endpoint. The results obtained with these two endpoints differ by approximately 15%, but each produces consistent values (see Table 2, below). As the potency of an unknown will be determined with respect to a Reference Lot, the absolute EC50 value is not critical. Given that the use of the MTT dye requires an additional solubilization step, XTT is selected for use in this assay.

Substance: porfimer sodium [Photofrin®]
- EC50-MTT (experiment PIN-009, in µg/mL): 8.28 and 8.11
- EC50-MTT, Mean (experiment PIN-009, mean): 8.2 µg/mL
